Data published in patent US9809532B2, “Uses of histone acetyltransferase activators” (THE TRUSTEES OF COLUMBIA UNIVERSITY IN THE CITY OF NEW YORK, priority 2011, dated 2017).
Several values for one entry are separate records, joined by “and”; a condition that tells them apart may be missing. Identical values can stand only once.

Assays:
[1] = molecular target: human GCN5 (Homo sapiens, UniProt Q92830); experiment: GCN5 activation, in vitro assay; type: biochemical
[2] = tested on: mouse model of Alzheimer's disease; experiment: Memory deficits in a mouse model of Alzheimer's disease; type: in vivo
[3] = molecular target: HDAC5FL (Homo sapiens, UniProt Q9UQL6); experiment: HDAC5FL activity assay (fluorescence)
Chain of HDAC5FL (Q9UQL6 whole entry): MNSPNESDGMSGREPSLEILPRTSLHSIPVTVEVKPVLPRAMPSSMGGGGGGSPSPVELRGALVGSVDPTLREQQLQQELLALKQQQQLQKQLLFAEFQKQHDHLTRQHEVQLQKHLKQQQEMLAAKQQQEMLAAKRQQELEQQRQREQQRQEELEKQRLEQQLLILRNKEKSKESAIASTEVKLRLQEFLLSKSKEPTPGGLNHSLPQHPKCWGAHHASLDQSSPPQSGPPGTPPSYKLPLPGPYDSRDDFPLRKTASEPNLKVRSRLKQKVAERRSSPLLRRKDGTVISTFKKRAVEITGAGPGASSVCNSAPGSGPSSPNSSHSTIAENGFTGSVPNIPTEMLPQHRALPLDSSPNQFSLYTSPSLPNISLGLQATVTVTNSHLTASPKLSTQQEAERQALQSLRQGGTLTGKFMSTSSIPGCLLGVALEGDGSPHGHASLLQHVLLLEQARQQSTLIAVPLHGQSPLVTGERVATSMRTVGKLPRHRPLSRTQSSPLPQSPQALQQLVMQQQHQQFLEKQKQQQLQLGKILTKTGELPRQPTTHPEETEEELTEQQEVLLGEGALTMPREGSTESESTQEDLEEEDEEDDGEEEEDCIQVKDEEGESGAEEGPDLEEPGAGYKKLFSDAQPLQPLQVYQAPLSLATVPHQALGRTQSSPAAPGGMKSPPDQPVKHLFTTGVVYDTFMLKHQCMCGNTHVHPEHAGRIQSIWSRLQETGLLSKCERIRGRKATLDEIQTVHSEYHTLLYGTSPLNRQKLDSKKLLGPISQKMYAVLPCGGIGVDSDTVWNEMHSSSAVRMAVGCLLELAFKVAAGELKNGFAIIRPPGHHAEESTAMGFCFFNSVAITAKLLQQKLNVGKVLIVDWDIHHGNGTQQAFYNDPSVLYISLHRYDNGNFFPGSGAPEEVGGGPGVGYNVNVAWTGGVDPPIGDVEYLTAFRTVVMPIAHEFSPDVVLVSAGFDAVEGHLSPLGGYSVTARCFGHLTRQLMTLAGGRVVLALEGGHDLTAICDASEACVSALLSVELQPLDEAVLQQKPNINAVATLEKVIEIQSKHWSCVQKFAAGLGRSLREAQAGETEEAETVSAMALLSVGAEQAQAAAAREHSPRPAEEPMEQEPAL

[4] = molecular target: T1, HDAC10 (Homo sapiens, UniProt Q969S8); experiment: HDAC10 activity assay (fluorescence); conditions: Compound 1 Log [nM] 4.5; Repeat1/Repeat2
T1 sequence (Q969S8 1-669): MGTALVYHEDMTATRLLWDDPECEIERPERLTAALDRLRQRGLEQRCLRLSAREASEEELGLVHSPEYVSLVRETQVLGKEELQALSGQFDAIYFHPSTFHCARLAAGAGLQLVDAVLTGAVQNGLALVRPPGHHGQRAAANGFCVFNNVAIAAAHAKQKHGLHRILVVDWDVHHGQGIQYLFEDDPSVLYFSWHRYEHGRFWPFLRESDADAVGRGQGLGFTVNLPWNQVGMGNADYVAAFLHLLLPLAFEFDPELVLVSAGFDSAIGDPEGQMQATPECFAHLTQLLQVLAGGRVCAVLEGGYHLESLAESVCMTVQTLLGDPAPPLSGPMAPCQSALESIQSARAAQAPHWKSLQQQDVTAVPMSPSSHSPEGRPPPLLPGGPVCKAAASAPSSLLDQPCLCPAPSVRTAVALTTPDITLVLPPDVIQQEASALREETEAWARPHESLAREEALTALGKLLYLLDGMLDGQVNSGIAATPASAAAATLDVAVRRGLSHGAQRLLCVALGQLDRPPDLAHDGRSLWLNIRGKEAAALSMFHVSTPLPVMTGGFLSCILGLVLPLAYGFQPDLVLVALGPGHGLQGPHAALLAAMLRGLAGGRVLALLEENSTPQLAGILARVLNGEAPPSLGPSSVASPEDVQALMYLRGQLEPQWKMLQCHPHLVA

[5] = molecular target: T2, HDAC7 (Homo sapiens, UniProt Q8WUI4); experiment: HDAC7 activity assay (fluorescence)
T2 sequence (Q8WUI4 1-952): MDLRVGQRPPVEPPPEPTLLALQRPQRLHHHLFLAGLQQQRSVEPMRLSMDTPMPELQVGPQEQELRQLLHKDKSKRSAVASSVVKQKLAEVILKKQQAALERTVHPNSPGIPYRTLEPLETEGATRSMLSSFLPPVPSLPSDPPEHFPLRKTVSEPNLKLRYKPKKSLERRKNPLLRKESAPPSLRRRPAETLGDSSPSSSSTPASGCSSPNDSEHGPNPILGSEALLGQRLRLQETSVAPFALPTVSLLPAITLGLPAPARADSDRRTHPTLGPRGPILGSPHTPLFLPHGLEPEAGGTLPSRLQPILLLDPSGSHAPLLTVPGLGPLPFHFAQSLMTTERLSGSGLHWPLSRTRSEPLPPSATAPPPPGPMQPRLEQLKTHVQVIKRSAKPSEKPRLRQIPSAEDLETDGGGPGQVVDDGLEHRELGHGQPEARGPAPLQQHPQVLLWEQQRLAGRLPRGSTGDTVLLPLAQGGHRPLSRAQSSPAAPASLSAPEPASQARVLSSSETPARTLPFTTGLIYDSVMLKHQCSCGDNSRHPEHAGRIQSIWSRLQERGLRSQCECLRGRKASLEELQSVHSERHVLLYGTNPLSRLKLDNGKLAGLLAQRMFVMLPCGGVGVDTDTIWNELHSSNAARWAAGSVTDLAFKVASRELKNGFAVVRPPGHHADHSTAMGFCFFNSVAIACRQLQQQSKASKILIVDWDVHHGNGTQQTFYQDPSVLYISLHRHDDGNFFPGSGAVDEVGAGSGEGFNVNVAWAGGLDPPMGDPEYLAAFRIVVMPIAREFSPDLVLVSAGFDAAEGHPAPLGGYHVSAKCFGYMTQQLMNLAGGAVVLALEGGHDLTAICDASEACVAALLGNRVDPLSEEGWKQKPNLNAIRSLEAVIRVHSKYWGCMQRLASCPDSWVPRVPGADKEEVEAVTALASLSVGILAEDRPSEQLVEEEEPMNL

[6] = tested on: mice; experiment: Sensory threshold assessment; type: in vivo; conditions: vs vehicle, 5 mg/kg (FIG. 19)
Method: To evaluate contextual fear learning, freezing was measured for 5 min (consecutively) in the chamber in which the mice was trained 24 hr after training. To evaluate cued fear learning, following contextual testing, the mice were placed in a novel context (triangular cage with smooth flat floor) for 2 min (pre-CS test), after which they were exposed to the CS for 3 min (CS test), and freezing was measured. Sensory perception of the shock was determined through threshold assessment. A sequence of single foot shocks was delivered to animals placed on the same electrified grid used for fear conditioning. Initially, a […] shock was delivered for 1 sec, and the animal behavior was evaluated for flinching, jumping, and vocalization. At 30 sec intervals the shock intensity was increased by […] and then returned to 0 mV in […] increments at 30 sec intervals. Threshold to vocalization, flinching, and then jumping was quantified for each animal by averaging the shock intensity at which each animal manifests a behavioral response to the foot shock.

[7] = molecular target: HDAC3/NCOR2 (Homo sapiens, UniProt O15379); experiment: HDAC3/NCOR2 activity assay (fluorescence); conditions: Repeat1/Repeat2
Chain of HDAC3/NCOR2 (O15379 whole entry): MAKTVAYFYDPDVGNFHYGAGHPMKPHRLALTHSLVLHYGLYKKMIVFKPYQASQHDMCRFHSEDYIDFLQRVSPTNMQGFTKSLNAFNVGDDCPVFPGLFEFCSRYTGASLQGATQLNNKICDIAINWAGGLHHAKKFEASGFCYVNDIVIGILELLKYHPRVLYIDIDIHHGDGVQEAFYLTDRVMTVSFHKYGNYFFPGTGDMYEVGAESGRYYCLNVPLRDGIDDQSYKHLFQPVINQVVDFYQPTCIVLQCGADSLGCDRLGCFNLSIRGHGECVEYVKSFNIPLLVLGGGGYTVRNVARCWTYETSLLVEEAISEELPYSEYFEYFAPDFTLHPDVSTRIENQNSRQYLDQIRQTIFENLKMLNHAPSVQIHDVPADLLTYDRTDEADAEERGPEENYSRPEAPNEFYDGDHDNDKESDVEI
Chain of HDAC3/NCOR2 (Q9Y618 395-489 partner limits assumed): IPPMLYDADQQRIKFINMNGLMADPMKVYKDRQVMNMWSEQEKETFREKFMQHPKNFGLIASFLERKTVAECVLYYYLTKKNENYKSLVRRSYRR

Chain of human GCN5 (Q92830 whole entry): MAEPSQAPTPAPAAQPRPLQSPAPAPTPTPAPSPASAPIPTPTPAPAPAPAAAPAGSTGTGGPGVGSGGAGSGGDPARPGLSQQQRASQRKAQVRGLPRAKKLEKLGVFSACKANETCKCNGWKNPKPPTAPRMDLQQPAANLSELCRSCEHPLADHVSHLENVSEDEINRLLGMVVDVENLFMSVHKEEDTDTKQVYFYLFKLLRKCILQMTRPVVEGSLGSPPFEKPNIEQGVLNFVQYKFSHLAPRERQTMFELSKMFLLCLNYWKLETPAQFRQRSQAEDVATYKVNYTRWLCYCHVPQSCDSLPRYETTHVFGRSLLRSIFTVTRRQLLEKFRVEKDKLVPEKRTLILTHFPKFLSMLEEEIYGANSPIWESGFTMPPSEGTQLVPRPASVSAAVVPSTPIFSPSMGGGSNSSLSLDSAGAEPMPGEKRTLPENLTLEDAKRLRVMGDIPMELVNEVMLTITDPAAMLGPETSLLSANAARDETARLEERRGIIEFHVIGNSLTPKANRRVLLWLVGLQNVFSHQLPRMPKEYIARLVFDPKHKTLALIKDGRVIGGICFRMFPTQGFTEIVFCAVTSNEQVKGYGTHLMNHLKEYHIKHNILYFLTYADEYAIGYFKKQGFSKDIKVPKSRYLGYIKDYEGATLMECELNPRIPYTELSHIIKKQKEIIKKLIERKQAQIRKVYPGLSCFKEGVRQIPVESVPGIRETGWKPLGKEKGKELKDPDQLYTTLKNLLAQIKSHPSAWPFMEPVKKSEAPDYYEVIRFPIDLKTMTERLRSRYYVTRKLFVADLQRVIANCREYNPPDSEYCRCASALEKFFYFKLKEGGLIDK

CCOc1cccc(OCCN(C)C)c1C(=O)Nc1ccc(Cl)c(C(F)(F)F)c1 [Compound 1]
EC50 [1]: 49.3 µM and 65.2 µM
memory deficits [2]: ameliorate memory deficits
IC50 [3]: > 200 µM
% Activity (HDAC5FL) ([3]; Compound 1 Log [nM] 3.0, Repeat1/Repeat2): 99.80%
% Activity (HDAC10) [4]: 102.89%
IC50 [5]: > 200 µM
sensory threshold [6]: no difference was observed
% Activity (HDAC3/NCOR2) ([7]; Compound 1 Log [nM] 0.5): 102.35% and 89.76%
% Activity (HDAC3/NCOR2) ([7]; Compound 1 Log [nM] 1.0): 98.01% and 97.56%
% Activity (HDAC3/NCOR2) ([7]; Compound 1 Log [nM] 1.5): 101.44% and 96.12%
% Activity (HDAC3/NCOR2) ([7]; Compound 1 Log [nM] 2.0): 102.25% and 94.61%
% Activity (HDAC3/NCOR2) ([7]; Compound 1 Log [nM] 2.5): 101.07% and 95.51%
% Activity (HDAC3/NCOR2) ([7]; Compound 1 Log [nM] 3.0): 99.62% and 94.38%
% Activity (HDAC3/NCOR2) ([7]; Compound 1 Log [nM] 3.5): 97.14% and 94.27%
% Activity (HDAC3/NCOR2) ([7]; Compound 1 Log [nM] 4.0): 108.31% and 94.90%
% Activity (HDAC3/NCOR2) ([7]; Compound 1 Log [nM] 4.5): 87.66% and 88.97%
% Activity (HDAC3/NCOR2) ([7]; Compound 1 Log [nM] 5.3): 89.40% and 102.23%
